Assay results from publication PMC4435632, “Phase 1 study of ixazomib, an investigational proteasome inhibitor, in advanced non-hematologic malignancies” (Investigational New Drugs, 2015).

Legend:
[1] = Plasma ixazomib pharmacokinetics (LC/MS/MS, noncompartmental); type: in vivo
Experimental: Blood samples for determination of plasma ixazomib concentrations for pharmacokinetic analysis (3 mL) and for measurement of whole blood 20S proteasome activity (1 mL) were collected at the following timepoints for all patients in the dose-escalation cohort and for the first 12 patients completing cycle 1 while receiving protocol-specified treatment at the MTD: pre-dose (within 1 h) on days 1, 4, 8, and 11 of cycle 1, and on day 1 of cycle 2; and on days 1 and 11, cycle 1, at 5, 15 and 30 min, and 1, 2, 4, 9, 24, 48, 96 (day 11 only), 120 (day 11 only), and 168 (day 11 only) h post-dose. A limited sampling schedule was employed for the remaining patients in the MTD expansion cohorts.
Plasma concentrations of ixazomib were measured using a good laboratory practice-validated liquid chromatography/tandem mass spectrometry (LC/MS/MS) assay with a lower limit of quantification of 0.5 ng/mL. Whole blood 20S proteasome activity (expressed as percent proteasome inhibition relative to baseline) was measured using an established fluorogenic assay, which evaluates the chymotrypsin-like activity of the β5 subunit of the 20S proteasome, the primary target of ixazomib. […]
All efficacy and safety data were summarized using descriptive statistics. Pharmacokinetic and pharmacodynamic parameters were calculated using noncompartmental methods (WinNonlin software v5.3).

[2] = tested on: ATF-3; assay: ATF-3 IHC staining in pre- and post-dose tumor biopsies; type: in vivo, human; conditions: TPEC, 1.76 mg/m^2; seven evaluable tumor pairs
Experimental: This open-label, non-randomized, dose-escalation phase 1 study was conducted at 7 sites in the United States and Canada, with patients enrolled from March 02, 2009 to January 10, 2012. The primary objective of the trial was to determine the safety profile, establish the maximum tolerated dose (MTD), and inform the recommended phase 2 dose of IV ixazomib in patients with non-hematologic malignancies. Secondary objectives were to characterize the pharmacokinetics and pharmacodynamics of IV ixazomib in blood and to evaluate disease response. Drug distribution and target engagement in post-dose tumor samples was measured by determining the increase in ATF-3 levels in post-dose tumor samples compared with pre-dose samples by immunohistochemistry (IHC).
Tumor biopsies were analyzed for the presence of ixazomib using a quantified LC/MS/MS methodology validated in xenograft models. Expression of ATF-3 was measured in the TPEC using an IHC staining assay developed and validated using preclinical and human primary tumor samples. For this assay, formalin-fixed, paraffin-embedded tumor biopsy samples were obtained pre- and post-treatment (at 4–24 h post-dosing on day 1 or day 4 of cycle 1). […] After staining, whole slides were scanned and analyzed to calculate the percentage ATF-3-positive area for each section using the Genie™ (Aperio® ePathology Solutions) pattern recognition tool. […]

SMILES: CC(C)C[C@H](NC(=O)CNC(=O)c1cc(Cl)ccc1Cl)B(O)O [ixazomib]
- C0 (extrapolated immediate post-bolus plasma concentration) ([1]; day 1, 2.34 mg/m^2 IV, n = 1, individual value): 901 ng/mL
- t½ (terminal disposition phase half-life) ([1]; day 11, 1.33 mg/m^2 IV, n = 3, geometric mean (% CV)): 145 (19) h
- Decrease of mean plasma concentrations ([1]; human, in vivo, 8 h): approximately 90%
- Accumulation of ixazomib ([1]; human, in vivo, 11 day of cycle 1): approximately 3 fold
- half-life ([1]; human, in vivo, iv): 91.2 to 173 h
- C0 ([1]; human, in vivo, iv, 0.125 mg/m2, C0 (extrapolated immediate post-bolus plasma concentration)): 27.1 ng/mL
- AUC(0-t) ([1]; human, in vivo, iv, 0.25 mg/m2, AUC0–72): 60.9 ng·h/mL
- C0 ([1]; human, in vivo, iv, 0.25 mg/m2, C0 (extrapolated immediate post-bolus plasma concentration)): 69 ng/mL
- half-life ([1]; human, in vivo, iv, 1 mg/m2): 172 h
- C0 ([1]; human, in vivo, iv, 1 mg/m2, C0 (extrapolated immediate post-bolus plasma concentration)): 273 ng/mL
- C0 ([1]; human, in vivo, iv, 1.33 mg/m2, C0 (extrapolated immediate post-bolus plasma concentration)): 390 ng/mL
- half-life ([1]; human, in vivo, iv, 1.76 mg/m2): 110 h
- C0 ([1]; human, in vivo, iv, 1.76 mg/m2, C0 (extrapolated immediate post-bolus plasma concentration)): 556 ng/mL
- half-life ([1]; human, in vivo, iv, 2.34 mg/m2): 90.8 h
- C0 ([1]; human, in vivo, iv, 2.34 mg/m2, C0 (extrapolated immediate post-bolus plasma concentration)): 869 ng/mL
- Plasma exposure versus dose ([1]; in vivo): appeared to increase proportionally with increasing ixazomib dose
- Paired tumor samples with statistically significant increase in post-dose ATF-3 levels (p <0.05) [2]: Six of the seven
